Assay results as given in publication PMC12449377, “Psychedelic-like effects induced by 2,5-dimethoxy-4-iodoamphetamine, lysergic acid diethylamide, and psilocybin in male and female C57BL/6J mice” (Psychopharmacology, 2025).

What was measured:
[1] = test system: C57BL/6J mice; assay: Locomotor activity (distance traveled) in mice; assay type: in vivo, mouse; details: for Locomotor Activity (cm) Mean: 30 min
Description: At 1–2 weeks prior to the beginning of experiments, mice were habituated to handling and receiving s.c. saline injections. On the day of an experiment, mice were acclimated to the testing room in their home cage for at least 30 min prior to the start of sessions. Prior to each session, mice were weighed, and resting body temperatures were recorded. Mice were then placed into experimental chambers for acclimation. Behavioral testing was carried out in TruScan mouse locomotor arenas equipped with photobeam arrays (Coulbourn Instruments, Holliston, MA, USA) that were modified with cylindrical inserts and transparent flooring to aid in semi-automated HTR detection as previously described (Glatfelter et al. [2022a]). After 5 min of acclimation, basal body temperature was recorded followed by s.c. injection of drug or vehicle, and mice were returned to test chambers for 30 min. Dose ranges for each drug were 0.03–10 mg/kg for DOI, 0.03–10 mg/kg for psilocybin, and 0.003–1 mg/kg for LSD. Mice were randomly assigned to specific doses at the beginning of the experiment and received different doses at each session.
During each session, locomotor activity was quantified via photobeam tracking of distance traveled in cm. Overhead GoPro Hero Black 7 video recordings (120 fps, 960p resolution) were analyzed using a commercially available software package from Clever Sys Inc. (Reston, VA, USA) for the measurement of HTR activity. Mouse body temperature was also collected post-session to calculate temperature change values (basal - post session temperature reading).
Concentration-response data were fit to a single site non-linear regression model. For the HTR studies, potencies were determined from the ascending limb of the dose-response curves using ED50 potency values from [agonist] vs. response (variable slope, four parameter) least squares fit non-linear regression analyses, whereas efficacy was defined by the top output parameter or Emax from the aforementioned analyses. […] Best-fit values for ED50 and Emax from non-linear regression analyses were compared by extra sum-of-squares F tests. Mean effects for each behavioral endpoint were compared using two-way ANOVA (dose x sex), followed by Sidak’s multiple comparisons post-hoc test. Mean effects for pooled mouse behavioral data were compared via Welch’s ANOVA with Dunnett’s T3 post-hoc test, comparing all doses to saline vehicle controls (0 mg/kg). Alpha was set to 0.05 for all analyses.

[2] = test system: C57BL/6J mice; details: range over Table 1 and an earlier study; ref Glatfelter et al. ([2024b]); cited from earlier work

| SMILES | Locomotor Activity (cm) Mean ([1]; 0.03 mg/kg s.c., female mice) | Locomotor Activity (cm) Mean ([1]; 0.03 mg/kg s.c., male mice) | Locomotor Activity (cm) Mean ([1]; 0.03 mg/kg s.c., pooled sexes) | Locomotor Activity (cm) Mean ([1]; 0.1 mg/kg s.c., female mice) | Locomotor Activity (cm) Mean ([1]; 0.1 mg/kg s.c., male mice) | Locomotor Activity (cm) Mean ([1]; 0.1 mg/kg s.c., pooled sexes) | Locomotor activity effect ([1]; 1 mg/kg s.c.) | Locomotor Activity (cm) Mean ([1]; 1 mg/kg s.c., female mice) | Locomotor Activity (cm) Mean ([1]; 1 mg/kg s.c., male mice) | Locomotor Activity (cm) Mean ([1]; 1 mg/kg s.c., pooled sexes) | also measured |
| --- | --- | --- | --- | --- | --- | --- | --- | --- | --- | --- | --- |
| COc1cc(CC(C)N)c(OC)cc1I (stereo not drawn) [DOI, 2,5-dimethoxy-4-iodoamphetamine] | 2149 cm | 2753 cm | 2408 cm | 2292 cm | 3045 cm | 2606 cm | marginal increase | 3246.7 cm | 4033.6 cm | 3640 cm | Locomotor Activity (cm) Mean ([1]; 3 mg/kg s.c., female mice): 3192.6 cm; Locomotor Activity (cm) Mean ([1]; 3 mg/kg s.c., male mice): 3289.3 cm; Locomotor Activity (cm) Mean ([1]; 3 mg/kg s.c., pooled sexes): 3241 cm; Locomotor Activity (cm) Mean ([1]; 10 mg/kg s.c., female mice): 2459.7 cm; Locomotor Activity (cm) Mean ([1]; 10 mg/kg s.c., male mice): 2529.1 cm; Locomotor Activity (cm) Mean ([1]; 10 mg/kg s.c., pooled sexes): 2492 cm |
| CCN(CC)C(=O)[C@@H]1C=C2c3cccc4[nH]cc(c34)C[C@H]2N(C)C1 [LSD, lysergic acid diethylamide] | 2977.4 cm | 2756.4 cm | 2867 cm | 2290.0 cm | 2650.0 cm | 2456 cm | decreased locomotion | 2029.2 cm | 1571.6 cm | 1800 cm | Locomotor Activity (cm) Mean ([1]; 0.003 mg/kg s.c., female mice): 2499.8 cm; Locomotor Activity (cm) Mean ([1]; 0.003 mg/kg s.c., male mice): 2549.1 cm; Locomotor Activity (cm) Mean ([1]; 0.003 mg/kg s.c., pooled sexes): 2526 cm; Locomotor Activity (cm) Mean ([1]; 0.01 mg/kg s.c., female mice): 2581.2 cm; Locomotor Activity (cm) Mean ([1]; 0.01 mg/kg s.c., male mice): 2649.3 cm; Locomotor Activity (cm) Mean ([1]; 0.01 mg/kg s.c., pooled sexes): 2615 cm; Locomotor Activity (cm) Mean ([1]; 0.3 mg/kg s.c., female mice): 2309.5 cm; Locomotor Activity (cm) Mean ([1]; 0.3 mg/kg s.c., male mice): 2123.8 cm; Locomotor Activity (cm) Mean ([1]; 0.3 mg/kg s.c., pooled sexes): 2217 cm; s.c. ED50 doses for inducing HTR in mice [2]: 0.035 to 0.039 mg/kg |
